Broadly, the IC50 is the concentration needed to halve the response being measured. A low value points to inhibition by little substance.

The target in the test is EGFR (human) (UniProt P00533).
EGFR (human), sequence (P00533 whole entry, looked up): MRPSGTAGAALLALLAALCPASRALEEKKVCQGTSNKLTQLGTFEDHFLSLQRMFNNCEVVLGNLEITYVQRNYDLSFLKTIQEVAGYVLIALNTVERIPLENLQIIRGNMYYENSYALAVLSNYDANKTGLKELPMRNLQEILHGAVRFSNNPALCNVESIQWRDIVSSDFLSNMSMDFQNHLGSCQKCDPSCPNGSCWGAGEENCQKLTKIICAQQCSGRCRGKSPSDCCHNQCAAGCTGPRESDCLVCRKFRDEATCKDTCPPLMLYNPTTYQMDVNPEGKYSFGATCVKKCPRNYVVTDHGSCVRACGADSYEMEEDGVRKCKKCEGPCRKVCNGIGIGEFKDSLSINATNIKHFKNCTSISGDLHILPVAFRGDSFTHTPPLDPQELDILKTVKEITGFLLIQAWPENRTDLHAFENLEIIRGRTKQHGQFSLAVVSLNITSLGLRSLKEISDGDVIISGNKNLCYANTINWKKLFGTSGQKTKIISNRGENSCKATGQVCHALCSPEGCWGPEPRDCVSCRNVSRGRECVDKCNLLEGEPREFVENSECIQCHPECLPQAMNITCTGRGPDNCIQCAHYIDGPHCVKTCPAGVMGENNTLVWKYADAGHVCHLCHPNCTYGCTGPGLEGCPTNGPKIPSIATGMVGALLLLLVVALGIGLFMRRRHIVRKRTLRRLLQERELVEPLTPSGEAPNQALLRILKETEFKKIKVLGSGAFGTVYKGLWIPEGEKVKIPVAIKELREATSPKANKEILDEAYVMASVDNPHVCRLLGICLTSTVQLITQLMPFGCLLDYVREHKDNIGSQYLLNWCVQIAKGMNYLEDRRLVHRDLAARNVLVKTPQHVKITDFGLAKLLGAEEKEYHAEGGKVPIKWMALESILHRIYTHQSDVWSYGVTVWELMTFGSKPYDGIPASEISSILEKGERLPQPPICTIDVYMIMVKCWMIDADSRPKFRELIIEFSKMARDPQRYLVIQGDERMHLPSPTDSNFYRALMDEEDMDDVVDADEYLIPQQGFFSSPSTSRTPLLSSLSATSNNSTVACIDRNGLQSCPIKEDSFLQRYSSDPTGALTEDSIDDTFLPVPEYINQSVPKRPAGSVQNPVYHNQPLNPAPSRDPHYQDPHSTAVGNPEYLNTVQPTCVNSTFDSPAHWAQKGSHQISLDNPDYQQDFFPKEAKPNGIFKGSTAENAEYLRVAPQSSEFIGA
As for `COc1cccc(Nc2ncnc3cc(N)ncc23)c1`, the 50% inhibitory concentration (IC50) came out at 0.132 µM.

For `COc1cc2ncnc(Nc3ccc(Br)cc3)c2cc1OC`, the IC50 turned out to be 0.000977 µM. Under `Nc1cc2ncnc(Nc3cccc(F)c3)c2cn1` stands 0.851 µM. The figure for `Fc1cc2ncnc(Nc3cccc(Br)c3)c2cn1` is 0.0132 µM; for `Nc1cc2ncnc(Nc3ccccc3Br)c2cn1` it is 0.245 µM; for `CC(=O)Nc1cc2ncnc(Nc3cccc(Br)c3)c2cn1` it is 0.0295 µM. Under `COc1cc2ncnc(Nc3cccc(Br)c3)c2cn1` stands 0.0398 µM; under `Nc1cc2ncnc(Nc3cccc([N+](=O)[O-])c3)c2cn1`, 0.0407 µM.

`CN(C)c1cccc(Nc2ncnc3cc(N)ncc23)c1` returned an IC50 of 1.82 µM.

Regarding `Nc1ccc2c(Nc3ccccc3)ncnc2c1`, the IC50 is 0.1 µM.
